Measured values from the NIST ThermoML archive (doi:10.1021/je800110r).

Settings: 313.14 K, Liquid, Vibrating tube method

CCCCCCCCCC [decane]
Settings | mass density [kg/m3]
15552 kPa | 727.4
15582 kPa | 727.2
15613 kPa | 727.3
15637 kPa | 727.3
15663 kPa | 727.3
15908 kPa | 727.6
15941 kPa | 727.5
15972 kPa | 727.6
16007 kPa | 727.6
16031 kPa | 727.6
16067 kPa | 727.7
16091 kPa | 727.6
16114 kPa | 727.7
16151 kPa | 727.8
16180 kPa | 727.7
16204 kPa | 727.8
16241 kPa | 727.8
16273 kPa | 727.8
16306 kPa | 727.9
16338 kPa | 727.9
16359 kPa | 727.8
16381 kPa | 727.9
16402 kPa | 728
16427 kPa | 727.9
16452 kPa | 727.9
16478 kPa | 728
16507 kPa | 728
16537 kPa | 728
16566 kPa | 728
16587 kPa | 728
16618 kPa | 728.1
16648 kPa | 728.1
16683 kPa | 728.1
16721 kPa | 728.2
16748 kPa | 728.1
16784 kPa | 728.2
16824 kPa | 728.1
16860 kPa | 728.2
16883 kPa | 728.2
16907 kPa | 728.3
16935 kPa | 728.3
16975 kPa | 728.4
16996 kPa | 728.4
17023 kPa | 728.3
17046 kPa | 728.4
17070 kPa | 728.3
17101 kPa | 728.4
17124 kPa | 728.5
17149 kPa | 728.5
17170 kPa | 728.4
17191 kPa | 728.4
17222 kPa | 728.6
17243 kPa | 728.6
17264 kPa | 728.5
17296 kPa | 728.6
17320 kPa | 728.5
17348 kPa | 728.5
17377 kPa | 728.5
17408 kPa | 728.6
17430 kPa | 728.7
17455 kPa | 728.7
17481 kPa | 728.6
17502 kPa | 728.8
17528 kPa | 728.7
17557 kPa | 728.8
17609 kPa | 728.8
17763 kPa | 728.9
17790 kPa | 728.9
17820 kPa | 729
17842 kPa | 729
17877 kPa | 729.1
17905 kPa | 729
17931 kPa | 729.1
17958 kPa | 729
17988 kPa | 729.1
18011 kPa | 729.1
18042 kPa | 729.1
18062 kPa | 729.2
18096 kPa | 729.1
18131 kPa | 729.2
18170 kPa | 729.2
18202 kPa | 729.2
18226 kPa | 729.2
18249 kPa | 729.2
18273 kPa | 729.3
18301 kPa | 729.3
18325 kPa | 729.4
18346 kPa | 729.4
18374 kPa | 729.4
18403 kPa | 729.5
18439 kPa | 729.3
18460 kPa | 729.4
18494 kPa | 729.4
18522 kPa | 729.5
18544 kPa | 729.6
18569 kPa | 729.5
18600 kPa | 729.6
18628 kPa | 729.5
18646 kPa | 729.5
18671 kPa | 729.5
18697 kPa | 729.6
18722 kPa | 729.5
18748 kPa | 729.6
18781 kPa | 729.6
18812 kPa | 729.7
18842 kPa | 729.7
18869 kPa | 729.7
18894 kPa | 729.8
18927 kPa | 729.8
18953 kPa | 729.7
18979 kPa | 729.8
19001 kPa | 729.8
19027 kPa | 729.8
19054 kPa | 729.8
19076 kPa | 729.8
19102 kPa | 729.9
19133 kPa | 729.9
19152 kPa | 730
19187 kPa | 730
19210 kPa | 729.9
19237 kPa | 729.9
19256 kPa | 730
19287 kPa | 730.1
19326 kPa | 730
19353 kPa | 730
19380 kPa | 730.1
19412 kPa | 730.1
19441 kPa | 730.2
19466 kPa | 730.2
19487 kPa | 730.2
19512 kPa | 730.2
19546 kPa | 730.2
19564 kPa | 730.2
19582 kPa | 730.2
19606 kPa | 730.3
19634 kPa | 730.2
